“Also recorded” adds a separate entry of the source.
Assays:
Assay type in all cases: in vivo, human
[1] = tested on: type 1 DM patients with nephropathy; experiment: 18-month multi-center, prospective, controlled study of CIIIT on progression of diabetic nephropathy
Protocol: A study was conducted to assess the effects of Chronic Intermittent Intravenous Insulin Therapy (CIIIT) on the progression of diabetic nephropathy in patients with type 1 diabetes mellitus (DM). This 18-month multi-center, prospective, controlled study involved 49 type 1 DM patients with nephropathy who were following the Diabetes Control and Complications Trial (DCCT) intensive therapy (IT) regimen. Of these, 26 patients formed the control group C, which continued on IT, while 23 patients formed the treatment group (T) and underwent, in addition to IT, weekly CIIIT. […] For all of the above listed examples, after the initial few days of treatment, the patients underwent treatment once a week, each treatment day consisting of three infusions of insulin accompanied by ingestion of carbohydrates. The infusion device used to infuse the insulin was the BIONICA MD-110 pump. Typically there were ten pulses given over a period of one hour, and a rest period of one hour was taken between infusions of insulin. The form in which the carbohydrates were ingested changed from time to time and included eating foods of high glycemic index including but not limited to bread and cake. The patients' circulating glucose was measured once every thirty minutes by the finger stick method currently used by most diabetic patients. […]

[2] = tested on: diabetic patients with neuropathy; experiment: Case reports: diabetic neuropathy treated with the subject method
Source text: A middle-aged person with Type 1 diabetes for more than 22 years suffered from polyneuropathy. They had generalized pain and was unable to walk or even wear stockings because of the pain.
A middle-aged person with Type 1 diabetes for more than 30 years had severe peripheral neuropathy, was in constant pain below the knees and had difficulty sleeping at night. […] They have been using the treatment for eight years.
An elder type 2 diabetic patient had severe painful peripheral neuropathy to the point that they were unable to walk and used a wheelchair. […] Because of financial reasons, they stopped the therapy. As a result, the neuropathy returned, and they returned to using a wheelchair.
A middle-aged type 1 diabetic patient had severe neuropathy. They were a parent of two children who was bed-ridden with autonomic neuropathy before using the subject method two years ago. Their muscles had atrophied, they could not digest their food, they had been told that their nerves were dying inside them as a result of their diabetes. They stated that if they had not have two children, they would have taken their life. They had to quit their job, went on disability and was in an out of the hospital very often. They had welts on their head causing hair loss. They had no sensation in their feet, they had constant nausea, and they couldn't sleep at night because of the pain. They had insulin absorption problems and tried all different ways to improve the absorption of insulin into their body. For a number of years they injected themself intramuscularly because they felt that they obtained the best absorption of insulin that way. […] They have not been in the hospital since. […]
(§1) For all of the above listed examples, after the initial few days of treatment, the patients underwent treatment once a week, each treatment day consisting of three infusions of insulin accompanied by ingestion of carbohydrates. […] The patients' circulating glucose was measured once every thirty minutes by the finger stick method currently used by most diabetic patients. […]

[3] = tested on: patients suffering from senile dementia; experiment: Senile dementia in patients treated with Hepatic Activation / the present invention; conditions: diabetic patients with senile dementia
Source text: On many occasions patients who have been diabetics as well as having dementia have been treated with the method of the current invention. Dementia appears to be related to poor metabolism of glucose in the brain, which may well be the result of constricted flow of blood. This poor metabolism is at least in part the cause of the dementia.
A diabetic who was suffering from advanced senile dementia was placed in a nursing home because of excessive confusion, weakness, disorientation and lack of memory. Because the nursing home was not keeping up the strict four shot regimen needed by the patient for their diabetic blood sugar control, the patient's children removed the patient from the nursing home. The attending doctor recommended Hepatic Activation. Once the patient was activated, they returned to a totally independent living style.
as §1, with “carbohydrates. The infusion device used to infuse the insulin was the BIONICA MD-110 pump.” for “carbohydrates.”

[4] = tested on: diabetic patients with leg ulcers; experiment: Case reports: diabetes related leg ulcers treated with the subject method; conditions: ulcers not responding to any available therapy, Examples 10 and 11; listed as subject method
Source text: An older type 2 diabetic had one amputated leg as a result of diabetes related ulcers on that leg. They had developed ulcers on the other leg that would not respond to any available therapy and was in danger of losing the other leg to amputation. […] This patient used the subject method for several more years, and no additional ulcers formed.
A middle-aged type 1 diabetic patient had developed severe ulcers on both legs, which would not heal with any available treatment. […] The patient has been using the subject method now for 13 years.
(§2) For all of the above listed examples, after the initial few days of treatment, the patients underwent treatment once a week, each treatment day consisting of three infusions of insulin accompanied by ingestion of carbohydrates. The infusion device used to infuse the insulin was the BIONICA MD-110 pump. Typically there were ten pulses given over a period of one hour, and a rest period of one hour was taken between infusions of insulin. The form in which the carbohydrates were ingested changed from time to time and included eating foods of high glycemic index including but not limited to bread and cake. The patients' circulating glucose was measured once every thirty minutes by the finger stick method currently used by most diabetic patients. […]

[5] = Circulating glucose by finger stick during insulin pulse treatments; conditions: during the first treatment; all examples; finger stick every thirty minutes
Source text: (§3) For all of the above listed examples, after the initial few days of treatment, the patients underwent treatment once a week, each treatment day consisting of three infusions of insulin accompanied by ingestion of carbohydrates. The infusion device used to infuse the insulin was the BIONICA MD-110 pump. Typically there were ten pulses given over a period of one hour, and a rest period of one hour was taken between infusions of insulin. The form in which the carbohydrates were ingested changed from time to time and included eating foods of high glycemic index including but not limited to bread and cake. The patients' circulating glucose was measured once every thirty minutes by the finger stick method currently used by most diabetic patients. […] Table 1 below summarizes by the above examples the number of units of insulin per pulse administered and the amount of glucose ingested for each series of pulses: […]

[6] = tested on: diabetic patients with heart disease; experiment: Case reports: diabetic heart disease treated with the subject method
Source text: A middle-aged person with type 2 diabetes for 17 years was suffering from severe dilated cardiomyopathy (ejection fraction 14-19%). They were placed on the list to receive a heart transplant prior to starting treatment with the subject method. […] The patient has been receiving treatment for 10 years and is still off the heart transplant list. Their ejection fraction is currently 29-32%.
A middle-aged type 2 diabetic patient had severe heart disease including congestive heart failure and severe artereosclerotic heart disease. The patient was scheduled for heart surgery but because of their poor condition, surgeons refused to operate.
An older type 1 diabetic patient who was diabetic was scheduled for a coronary artery by-pass graft to correct their diabetes related heart disease. The surgeons were reluctant to operate in the condition they were in because of their advanced diabetes related arteriosclerosis. They were scheduled for a single vessel graft. […] They continuing using the subject method for several years after the surgery with no further deterioration in their diabetes related heart disease.
as §3

[7] = tested on: type 2 diabetic patient with diabetes related kidney disease; experiment: Case report: diabetes related kidney disease (proteinuria) treated with the subject method; conditions: before treatment 1500 milligrams of protein during 24 hours, rising 500 milligrams/24 hours/year; 5 years of treatment
Protocol: An older type 2 diabetic was exercising and had excellent circulating glucose control under intense insulin therapy including 3-4 injections per day of subcutaneous insulin. Even so, their diabetes related kidney disease had progressed to the point where they were discharging 1500 milligrams of protein during a 24-hour period and the rate of increase was 500 milligrams/24 hours/year. After using the subject method, the patient's proteinuria was reduced to 600-800 milligrams/24 hours. They have been using the method for 5 years.
as §2

[8] = tested on: type 2 diabetic male suffering with autonomic neuropathy; experiment: Case report: elevated blood pressure with autonomic neuropathy treated with the subject method; conditions: before treatment 200/120 despite intensive insulin therapy; 5 years of treatment
Source text: An older type 2 diabetic […] suffering with autonomic neuropathy had very elevated blood pressure readings of 200/120 despite a rigorous program to regulate their circulating glucose using intensive insulin therapy of 3 to 4 subcutaneous insulin injections daily. As a result of using the subject method, their blood pressure decreased to 120/80. They have been using the method for 5 years.
as §3

[9] = tested on: diabetic patients with retinopathy; experiment: Case reports: retinopathy treated with the subject method
Source text: A middle-aged person with type 1 diabetes for 38 years suffered from macular degeneration (retinopathy). They were unable to drive at night. […] The patient has been receiving treatment for 4 years.
A middle-aged type 2 diabetic patient had proliferative diabetic retinopathy with severe bleeding. Multiple photocoagulation scars made additional photocoagulation impossible. […] The patient has been using the subject method for 5 years, and they have had no further bleeding of the retina and no further photocoagulation.
as §2

[10] = type 1 patient with severe autonomic neuropathy, Example 14

insulin [CIIIT]
progression of diabetic nephropathy ([1]; CIIIT added to IT in type 1 DM patients with overt nephropathy): markedly reduce the progression of diabetic nephropathy
rate of CrCl decline ([1]; type 1 DM patients with nephropathy, 18 months, T group (weekly CIIIT added to IT, 23 patients) vs C group (IT alone, 26 patients), P=0.0343): 2.21±1.62 ml/min/yr
neuropathic pain after treatment ([2]; single patients with polyneuropathy / peripheral neuropathy, listed as subject method): the pain has been reduced to the point where the person enjoys rigorous exercise; also recorded: no longer takes pain medication and has no twinges of pain in their legs; also recorded: the pain had subsided to the point where they no longer used a wheelchair
gastroparesis [2, 10]: Her gastroparesis was reversed
numbness in legs [2, 10]: The numbness in their legs has gone away
senile dementia symptoms ([3]; listed as Hepatic Activation): significant improvement in their motor skills, memory, and cognitive function
senile dementia symptoms ([3]; listed as present invention): clearly shown improvement in confusion, weakness, disorientation, cognitive function and lack of memory
leg ulcers [4]: the ulcers on their second leg healed; also recorded: the ulcers healed and have never returned
rise of circulating glucose levels [5]: 100 to 150 mg/dL
postoperative recovery ([6]; after by-pass surgery, Examples 6 and 8, listed as subject method): normal postoperative recovery
insulin intake ([6]; same patient, Example 4, before treatment 150 units a day): 24-26 units/day
cardiac condition / need or fitness for heart surgery ([6]; single patients, Examples 4, 6, 8, listed as subject method): no longer required a heart transplant; also recorded: could withstand 4-vessel by-pass surgery; also recorded: their condition improved to the point where the doctors performed two instead of one grafts
ejection fraction ([6]; type 2 diabetic patient, severe dilated cardiomyopathy, before treatment 14-19%, after 10 years of treatment): 29-32%
proteinuria [7]: 600-800 milligrams/24 hours
blood pressure [8]: 120/80
eyesight ([9]; type 1 person, macular degeneration (retinopathy), unable to drive at night before treatment, 4 years of treatment): eyesight improved to the point where night driving was no longer a concern
retinal bleeding ([9]; type 2 male, proliferative diabetic retinopathy with severe bleeding, 5 years of treatment): the bleeding stopped, and there was no further deterioration of the retina

From patent US20050137522A1, “System for infusing insulin to a subject to improve impaired hepatic glucose processing” (priority 2003, published 2005)
